| melting point | Structure (SMILES) |
| --- | --- |
| 223 to 227 °C | COc1cc(C(=O)OCc2ccc3nc(N)nc(N)c3c2)cc(OC)c1OC |
| 195 to 197 °C | COc1ccc(OC)c(C(=O)OCc2ccc3nc(N)nc(N)c3c2)c1 |

From US20040092515A1, “Diaminoquinazoline esters for use as dihydrofolate reductase inhibitors” (priority 2001, published 2004)
